Measured values taken from ChEMBL document CHEMBL5042522, “One- and Two-Photon Uncaging of Carbon Monoxide (CO) with Real-Time Monitoring: On-Demand Carbazole-Based Dual CO-Releasing Platform to Test over Single and Combinatorial Approaches for the Efficient Regression of Orthotopic Murine Melanoma In Vivo” (J Med Chem, 2022).
Active and inactive are the calls of the source. No cut-off for these calls is given here.

Tests used:
[1] = Photorelease ability in PBS buffer at pH 7.4 assessed as retention time of compound decomposition at 100 uM irradiated with >= 365 nm Hg lamp for 30 mins by RP-HPLC analysis; assay type: physicochemical; conditions: pH 7.4, 0.5 h
[2] = Photorelease ability in PBS buffer at pH 7.4 assessed as retention time of 4-(6-(2,2-dihydroxyacetyl)-9-ethyl-9H-carbazol-3-yl)-1,3-dioxol-2-one formation at 100 uM irradiated with >= 365 nm Hg lamp for 30 mins by RP-HPLC analysis; assay type: physicochemical; conditions: pH 7.4, 0.5 h
[3] = Photorelease ability in PBS buffer at pH 7.4 assessed as retention time of 1,1'-(9-ethyl-9H-carbazole-3,6-diyl)bis(2,2-dihydroxyethanone) formation at 100 uM irradiated with >= 365 nm Hg lamp for 30 mins by RP-HPLC analysis; assay type: physicochemical; conditions: pH 7.4, 0.5 h
[4] = Photorelease activity in PBS buffer at pH 7.4 assessed as release of CO using 3',6'-Bis(allyloxy)-3H-spiro(isobenzofuran-1,9'-xanthen)-3-one fluorescent probe by measuring increase in fluorescence intensity irradiated with >= 365 nm Hg lamp at 500 uM in presence of PdCl2 by fluorescence spectroscopy; assay type: physicochemical; conditions: pH 7.4, 500 µM, TDE = time-dependent effect
[5] = Photorelease activity in PBS buffer at pH 7.4 assessed as release of CO using 3',6'-Bis(allyloxy)-3H-spiro(isobenzofuran-1,9'-xanthen)-3-one fluorescent probe at 500 uM irradiated with >= 365 nm Hg lamp for 30 mins in presence of PdCl2 by absorption spectroscopy; assay type: physicochemical; conditions: pH 7.4, 0.5 h
[6] = Photorelease activity in PBS buffer at pH 7.4 assessed as release of CO at 500 uM irradiated with pulsed laser at 730 nm for 30 mins by absorption spectroscopy; assay type: physicochemical; conditions: pH 7.4, 0.5 h
[7] = Photorelease activity in PBS buffer at pH 7.4 assessed as MbCO formation by measuring change in absorbance intensity at 500 uM irradiated with >= 365 nm Hg lamp for 30 mins in presence of deoxy-myoglobin by absorption spectroscopy; assay type: physicochemical; conditions: pH 7.4, 0.5 h
[8] = Photorelease activity in PBS buffer at pH 7.4 assessed as 1,1'-(9-ethyl-9H-carbazole-3,6-diyl)bis(2,2-dihydroxyethanone) photoproduct formation by measuring lambda 485 nm green emission band excited at wavelength of 350 nm for 30 mins by fluorescence spectroscopy; assay type: physicochemical; conditions: pH 7.4, 0.5 h
[9] = Drug uptake in mouse B16-F10 cells assessed as drug internalization by measuring blue fluorescence at 20 uM incubated for 4 hrs followed by propidium iodide staining based confocal laser scanning microscopy; assay type: ADME, cell-based; conditions: b16-f10, 4 h
B16-F10 [10] = experiment: Cytotoxicity against mouse B16-F10 cells assessed as cell viability at 1.25 to 10 uM irradiated with >= 365 nm Hg lamp for 5 mins after 6 hrs post-treatment and further incubated for 72 hrs by MTT assay; assay type: functional; conditions: dose 1.25-10 µM, time 78 hrs
HEK293 [11] = experiment: Induction of apoptosis in HEK293 cells assessed as early apoptotic cells at 5 uM incubated for 24 hrs by annexin-V-FITC and PI staining based flow cytometry analysis (reference value: 0.1 %); assay type: functional, Homo sapiens
HEK293 [12] = experiment: Induction of apoptosis in HEK293 cells assessed as necrotic cells at 5 uM incubated for 24 hrs by annexin-V-FITC and PI staining based flow cytometry analysis (reference value: 0 %); assay type: functional, Homo sapiens
HEK293 [13] = experiment: Induction of apoptosis in HEK293 cells assessed as viable cells at 5 uM with light irradiation incubated for 24 hrs by annexin-V-FITC and PI staining based flow cytometry analysis (reference value: 99.9 %); assay type: functional; conditions: Homo sapiens, HEK293, light or radiation study, read-out: Activity
HEK293 [14] = experiment: Induction of apoptosis in HEK293 cells assessed as necrotic cells at 5 uM with light irradiation incubated for 24 hrs by annexin-V-FITC and PI staining based flow cytometry analysis (reference value: 0 %); assay type: functional, Homo sapiens
B16-F10 [15] = experiment: Induction of apoptosis in mouse B16-F10 cells assessed as viable cells at 5 uM incubated for 24 hrs by annexin-V-FITC and PI staining based flow cytometry analysis (reference value: 99.9 %); assay type: functional; conditions: read-out: Activity
B16-F10 [16] = experiment: Induction of apoptosis in mouse B16-F10 cells assessed as necrotic cells at 5 uM incubated for 24 hrs by annexin-V-FITC and PI staining based flow cytometry analysis (reference value: 0 %); assay type: functional
B16-F10 [17] = experiment: Induction of apoptosis in mouse B16-F10 cells assessed as viable cells at 5 uM with light irradiation incubated for 24 hrs by annexin-V-FITC and PI staining based flow cytometry analysis (reference value: 99.9 %); assay type: functional; conditions: B16-F10, light or radiation study, read-out: Activity
B16-F10 [18] = experiment: Induction of apoptosis in mouse B16-F10 cells assessed as late apoptotic cells at 5 uM with light irradiation incubated for 24 hrs by annexin-V-FITC and PI staining based flow cytometry analysis (reference value: 0.1 %); assay type: functional
B16-F10 [19] = experiment: Induction of apoptosis in mouse B16-F10 cells assessed as necrotic cells at 5 uM with light irradiation incubated for 24 hrs by annexin-V-FITC and PI staining based flow cytometry analysis (reference value: 0 %); assay type: functional
[20] = Biodistribution in kidney of C57BL/6 mouse model harboring mouse B16-F10 cells at 0.4 mg/kg, iv irradiated with >= 365 nm Hg lamp for 10 mins measured after 24 hrs post-administration by fluorescence based assay; assay type: ADME, organism-based; conditions: in vivo, 24.17 h, time 1450 min
[21] = Biodistribution in heart of C57BL/6 mouse model harboring mouse B16-F10 cells at 0.4 mg/kg, iv irradiated with >= 365 nm Hg lamp for 10 mins measured after 24 hrs post-administration by fluorescence based assay; assay type: ADME, organism-based; conditions: in vivo, 24.17 h, time 1450 min
[22] = Biodistribution in lung of C57BL/6 mouse model harboring mouse B16-F10 cells at 0.4 mg/kg, iv irradiated with >= 365 nm Hg lamp for 10 mins measured after 24 hrs post-administration by fluorescence based assay; assay type: ADME, organism-based; conditions: in vivo, 24.17 h, time 1450 min
B16-F10 [23] = experiment: Antitumor activity against mouse B16-F10 cells bearing C57BL/6J mouse assessed as tumor growth inhibition at 0.4 mg/kg, iv administered alternate days for 24 days followed by irradiation with pulsed laser at 730 nm for 10 mins after 24 hrs each post-injection by slide caliper method; assay type: functional, organism-based; conditions: time 25.0 day
B16-F10 [24] = experiment: Antitumor activity against mouse B16-F10 cells bearing C57BL/6J mouse assessed as tumor regression at 0.4 mg/kg, iv administered alternate days for 24 days followed by irradiation with pulsed laser at 730 nm for 10 mins after 24 hrs each post-injection and measured on day 25 by slide caliper method; assay type: functional, organism-based; conditions: time 25.0 day
[25] = Toxicity in C57BL/6J mouse model harboring mouse B16-F10 cells assessed as heart tissue necrosis at 0.4 mg/kg, iv administered alternate days for 24 days followed by irradiation with pulsed laser at 730 nm for 10 mins after 24 hrs each post-injection by hematoxylin and eosin staining based assay; assay type: organism-based; conditions: in vivo, 600 h, 0.73 µM, time 25 day
[26] = Toxicity in C57BL/6J mouse model harboring mouse B16-F10 cells assessed as tumor tissue necrosis at 0.4 mg/kg, iv administered alternate days for 24 days followed by irradiation with pulsed laser at 730 nm for 10 mins after 24 hrs each post-injection by hematoxylin and eosin staining based assay; assay type: organism-based; conditions: in vivo, 600 h, 0.73 µM, time 25 day

For `CCn1c2ccc(-c3coc(=O)o3)cc2c2cc(-c3coc(=O)o3)ccc21`, the Retention_time [1] was 6.21 min, the Retention_time [2] was 8.05 min and the Retention_time [3] was 8.82 min. For the same molecule, the Drug metabolism [4] was “Tde”, the Drug metabolism [5] was 12 ppm and the Drug metabolism [6] was 4.5 ppm. The Drug metabolism [7] was “Active”, the Drug metabolism [8] was “Active” and the Drug uptake [9] was “Active”. The Activity (B16-F10 [10]) was 20%, the Activity (HEK293 [11]) was 0.9% and the Activity (HEK293 [12]) was 0%. It also gave a viability at 5 µM (HEK293 [13]) of 46.4%, an Activity (HEK293 [14]) of 0% and a viability at 5 µM (B16-F10 [15]) of 99%. The Activity (B16-F10 [16]) was 0%, the viability at 5 µM (B16-F10 [17]) was 51.4% and the Activity (B16-F10 [18]) was 15.4%. For the same molecule, the Activity (B16-F10 [19]) was 0.5%, the Drug uptake [20] was “Active” and the Drug uptake [21] was “Active”. For the same molecule, the Drug uptake [22] was “Active”, the Activity (B16-F10 [23]) was “Active” and the Activity (B16-F10 [24]) was “Active”. For the same molecule, the Activity [25] was “Non-Toxic” and the Activity [26] was “Toxic”.
